From patent publication US20250302866A1, “POLYMER AGENTS FOR CARDIOPULMONARY RESUSCITATION” (VIRGINIA COMMONWEALTH UNIVERSITY, priority 2019, published 2025)

Legend:
[1] = test system: patients with out-of-hospital cardiac arrest; details: prehospital epinephrine use; cited from earlier work
[2] = test system: rat model of cardiac arrest and cardiopulmonary resuscitation; test: Coronary perfusion pressure, defibrillations and arrhythmia in a rat model of cardiac arrest and CPR; format: in vivo, Sprague-Dawley rats; details: mean±SD
Procedure: (§1) Male Sprague-Dawley rats weighing 450-550 g were utilized in this study. After induction of anesthesia with inhalation of CO2 for about 30 seconds, the animals were anesthetized by intraperitoneal injection of pentobarbital (45 mg/kg). Additional doses (10 mg/kg) were administered when required to maintain anesthesia. After no response to stimuli, the animals were shaved. The trachea was orally intubated with a 14-G cannula mounted on a blunt needle (Abbocath-T; Abbott Hospital Products Division, North Chicago, IL, USA) with a 145-degree angled tip. End-tidal CO2 was continuously monitored with a side-stream infrared CO2 analyzer (Capstar-100 Carbon Dioxide Analyzer; CWE, Ardmore, PA) interposed between the tracheal cannula and the ventilator. A conventional lead II EKG was continuously monitored. Through the left external jugular vein, a PE-50 catheter (Becton Dickinson, Sparks, MD, USA) was advanced into the right atrium for measurement of right atrial pressures. A 3-F catheter (Model C-PMS-301J; Cook Critical Care, Bloomington, IN, USA) was advanced through the right external jugular vein into the right ventricle. For blood pressure measurements within the descending aorta and PEG-20k administration, PE-50 catheters were advanced into the descending aorta from the left femoral artery and the right femoral artery respectively. […]

[3] = test system: rat model of cardiac arrest and cardiopulmonary resuscitation; test: Duration of survival after resuscitation; format: in vivo, Sprague-Dawley rats; details: 6 resuscitated rats in each group
patients with SCA = details: cited from earlier work
[4] = test system: rat model of cardiac arrest and cardiopulmonary resuscitation; test: Buccal microcirculation (MFI, PVD) by side-stream dark-field imaging; format: in vivo, Sprague-Dawley rats; details: 1, 3, and 5 hours after ROSC; PEG-20k vs other 3 groups; p<0.05; FIG. 3
Procedure: as §1

[5] = test system: rat model of cardiac arrest and cardiopulmonary resuscitation; test: Post-resuscitation myocardial function by echocardiography (CO, EF, MPI); format: in vivo, Sprague-Dawley rats; details: 2, 4, and 6 hours after ROSC; PEG-20k vs other 3 groups, epinephrine vs saline placebo and saline-A; p<0.05; FIG. 2
Procedure: as §1

CNC[C@H](O)c1ccc(O)c(O)c1 [Epinephrine]
Chance of ROSC before hospital arrival [1]: increased chance of ROSC
Chance of survival and good functional outcomes 1 month after the event [1]: decreased chance of survival and good functional outcomes
Arrhythmia duration ([2]; after resuscitation): 14.00 ± 5.35
Number of defibrillations ([2]; defibrillations required for conversion to viable rhythm and ROSC, drug infused for 3 minutes after 4 minutes of precordial compression): 5.50 ± 2.88
Rats survived more than 24 hours [3]: one
Rate of ROSC vs placebo (patients with SCA): significantly higher rate of ROSC than placebo
Rate of survival with a favorable neurologic outcome (patients with SCA; vs placebo group): as low as the rate in the placebo group
Buccal microcirculation PVD and MFI values [4]: significantly decreased
PR myocardial function (CO, EF, MPI) [5]: increased the severity of PR myocardial dysfunction
